Results published in patent US20240368163A1, “COMPOUNDS AND METHODS FOR MODULATING SPLICING” (REMIX THERAPEUTICS INC., priority 2021, published 2024).

How the values were obtained:
Format in all cases: cell-based, human
HTT [1] = assay: Splicing RT-qPCR assay, HTT mRNA canonical junction (CJ) and alternative junction (AJ); conditions: Homo sapiens; for AC50: increase in AJ mRNA
Procedure, shortened: (§1)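 Splicing switch read by one-step RT-qPCR of canonical and alternative exon junctions, housekeeper-normalized (GAPDH/GUSB/PPIA), 2^(−ΔΔCt) vs DMSO as percent response. Cells (A673 or K562) dosed 24 h, 11 points 3-fold from 10 uM, DMSO ≤0.25%.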

MYB [2] = assay: Splicing RT-qPCR assay, MYB mRNA canonical junction (CJ) and alternative junction (AJ); conditions: Homo sapiens; for AC50: increase in AJ mRNA
Procedure, shortened: as §1

SMN2 = assay: Splicing RT-qPCR panel, SMN2 canonical junction (CJ) mRNA; conditions: Homo sapiens, RT-qPCR panel, canonical junction mRNA; compound concentration having 50% response in CJ decrease; read-out: SMN2 IC50 (decrease in CJ mRNA levels)
Procedure, shortened: as §1

Target C [3] = assay: Splicing RT-qPCR panel, Target C canonical junction (CJ) mRNA; conditions: Homo sapiens, RT-qPCR panel, canonical junction mRNA; compound concentration having 50% response in CJ decrease; read-out: Target C IC50 (decrease in CJ mRNA levels)
Procedure, shortened: as §1

MYB [4] = assay: HiBiT protein abundance assay, MYB; conditions: Homo sapiens, K562, 24 h, Table 13A, modified K562 cells
Procedure, shortened: (§2)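 Protein abundance measured by Nano-Glo HiBiT lytic luminescence after 24 h compound exposure of modified K562 lines, 10000 cells/well, top final dose 10 μM in 3-fold steps. Four-parameter fit of control-normalised response gives concentration reducing abundance to 50% of untreated.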

HTT [5] = assay: HiBiT protein abundance assay, HTT; conditions: Homo sapiens, K562, 24 h, Table 13A, modified K562 cells
Procedure, shortened: as §2

Target C [6] = assay: HiBiT protein abundance assay, Target C; conditions: Homo sapiens, K562, 24 h, Table 13A, modified K562 cells
Procedure, shortened: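 Target protein levels in engineered HiBiT-tagged cells were read by lytic luminescence after 24 h compound exposure (10000 cells/well, 10 μM top final, 3-fold steps, ≤0.25% DMSO). Unmodified K562 served as baseline; four-parameter regression gave concentration reducing abundance to 50%.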

[7] = 24 h, decrease in CJ mRNA, A673 or K562 cells, 24 hours treatment, RT-qPCR, read-out: HTT CJ IC50
[8] = 24 h, A673 or K562 cells, 24 hours treatment, RT-qPCR
[9] = RT-qPCR panel, canonical junction mRNA, compound concentration having 50% response in CJ decrease, read-out: HTT IC50 (decrease in CJ mRNA levels)
[10] = 24 h, decrease in CJ mRNA, A673 or K562 cells, 24 hours treatment, RT-qPCR, read-out: MYB CJ IC50
[11] = RT-qPCR panel, canonical junction mRNA, compound concentration having 50% response in CJ decrease, read-out: MYB IC50 (decrease in CJ mRNA levels)

Row | Structure (SMILES) | IC50 (HTT [1]; [7]) [nM] | AC50 (HTT [1]; [8]) [nM] | IC50 (HTT [1]; [9]) [nM] | IC50 (MYB [2]; [10]) [nM] | AC50 (MYB [2]; [8]) [nM] | IC50 (MYB [2]; [11]) [nM] | IC50 (SMN2) [nM] | IC50 (Target C [3]) [nM] | IC50 (MYB [4]) [nM] | IC50 (HTT [5]) [nM] | IC50 (Target C [6]) [nM]
1 | CNCC1CCN(c2ncc(-c3ccc(-c4cn[nH]c4)c4ncsc34)nn2)C1 (stereo not shown) [Compound 411, N-methyl-1-[1-[6-[4-(1H-pyrazol-4-yl)-1,3-benzothiazol-7-yl]-1,2,4-triazin-3-yl]pyrroledin-3-yl]metha-namine] | 1000 to 10000 | > 10000 | 1000 to 10000 | > 10000 | > 10000 | > 10000 | 1000 to 10000 | > 10000 | > 10000 | > 10000 | > 10000
2 | CNC1CCN(c2ncc(-c3ccc(-c4cn[nH]c4)c4ncsc34)nn2)C1 (stereo not shown) [Compound 412, N-methyl-1-[6-[4-(1H-pyrazol-4-yl)-1,3-benzothiazol-7-yl]-1,2,4-triazin-3-yl]pyrrolidin-3-amine] | 100 to 1000 | 1000 to 10000 | 100 to 1000 | > 10000 | > 10000 | > 10000 | 100 to 1000 | > 10000 | 1000 to 10000 | 1000 to 10000 | 1000 to 10000
3 | CN(C)C1CCN(c2ncc(-c3ccc(-c4cn[nH]c4)c4ncsc34)nn2)C1 (stereo not shown) [Compound 413] | 100 to 1000 | 100 to 1000 | 100 to 1000 | 100 to 1000 | 100 to 1000 | 100 to 1000 | 100 to 1000 | 100 to 1000 | 100 to 1000 | 100 to 1000 | 100 to 1000
4 | c1nc2c(-c3cn[nH]c3)ccc(-c3cnc(N4CCNC(C5CC5)C4)nn3)c2s1 (stereo not shown) [Compound 414] | 100 to 1000 | 100 to 1000 | 100 to 1000 | 1000 to 10000 | > 10000 | 1000 to 10000 | 1000 to 10000 | 1000 to 10000 | 1000 to 10000 | 100 to 1000 | 100 to 1000
5 | c1nc2c(-c3cn[nH]c3)ccc(-c3cnc(N4CCC(NC5CC5)C4)nn3)c2s1 (stereo not shown) [Compound 416, N-cyclopropyl-1-[6-[4-(1H-pyrazol-4-yl)-1,3-benzothiazol-7-yl]-1,2,4-triazin-3-yl]py-rrolidin-3-amine] | 1000 to 10000 | 1000 to 10000 | 1000 to 10000 | 1000 to 10000 | > 10000 | 1000 to 10000 | 1000 to 10000 | > 10000 | 1000 to 10000 | 1000 to 10000 | 1000 to 10000
6 | c1nc2c(-c3cn[nH]c3)ccc(-c3ccc(N4CCNC(C5CC5)C4)nn3)c2s1 (stereo not shown) [Compound 417] | 1000 to 10000 | > 10000 | 1000 to 10000 | 1000 to 10000 | 1000 to 10000 | 1000 to 10000 | 100 to 1000 | > 10000 | > 10000 | 100 to 1000 | 1000 to 10000
7 | CN(c1ncc(-c2ccc(-c3cn[nH]c3)c3ncsc23)nn1)[C@@H]1C[C@H]2CC[C@@H](C1)N2 [Compound 420] | – | < 100 | < 100 | 100 to 1000 | 100 to 1000 | 100 to 1000 | 100 to 1000 | 100 to 1000 | 100 to 1000 | < 100 | < 100
8 | CN(c1ncc(-c2ccc(-c3cn[nH]c3)c3ncsc23)nn1)C1C[C@H]2CCC[C@H](C1)N2 (stereo partly shown) [Compound 421] | – | < 100 | < 100 | 100 to 1000 | 100 to 1000 | 100 to 1000 | < 100 | < 100 | 100 to 1000 | < 100 | < 100
9 | c1nc2c(-c3cn[nH]c3)ccc(-c3cnc(N[C@@H]4C[C@H]5CC[C@@H](C4)N5)nn3)c2s1 [Compound 422] | – | 100 to 1000 | < 100 | 100 to 1000 | 1000 to 10000 | 100 to 1000 | 100 to 1000 | 100 to 1000 | 100 to 1000 | 100 to 1000 | 100 to 1000
10 | CN(c1ncc(-c2ccc(-c3cn[nH]c3)c3ncsc23)nn1)[C@H]1C[C@]2(C)CC[C@](C)(C1)N2 [Compound 424, (1S,5R)—N,1,5-trimethyl-N-[6-[4-(1H-pyrazol-4-yl)-1,3-benzothiazol-7-yl]-1,2,4-triazin-3-yl]-8-azabicyclo [3.2.1] octan-3-amine] | – | < 100 | < 100 | 100 to 1000 | 100 to 1000 | 100 to 1000 | 100 to 1000 | < 100 | 100 to 1000 | < 100 | < 100
11 | CN(c1ncc(-c2ccc(-c3cn[nH]c3)c3ncsc23)nn1)[C@@H]1C[C@]2(C)CC[C@](C)(C1)N2 [Compound 425, (1S,5R)—N,1,5-trimethyl-N-[6-[4-(1H-pyrazol-4-yl)-1,3-benzothiazol-7-yl]-1,2,4-triazin-3-yl]-8-azabicyclo [3.2.1] octan-3-amine] | 100 to 1000 | 100 to 1000 | 100 to 1000 | 1000 to 10000 | > 10000 | 1000 to 10000 | 1000 to 10000 | 100 to 1000 | 1000 to 10000 | 100 to 1000 | 100 to 1000
12 | CN(c1ncc(-c2ccc(-c3cn[nH]c3)c3ncsc23)nn1)C1CC2CCC(C1)N2 (stereo not shown) [Compound 443] | – | – | < 100 | – | – | 1000 to 10000 | 100 to 1000 | 100 to 1000 | 100 to 1000 | < 100 | < 100
13 | CN(c1ncc(-c2ccc(-c3cn[nH]c3)c3ncsc23)nn1)[C@@H]1C[C@H]2CCC[C@@H](C1)N2 [Compound 449, (1S,5R)—N-methyl-N-[6-[4-(1H-pyrazol-4-yl)-1,3-benzothiazol-7-yl]-1,2,4-triazin-3-yl]-9-azabicyclo[3.3.1]nonan-3-amine] | – | – | < 100 | – | – | 100 to 1000 | < 100 | < 100 | 100 to 1000 | < 100 | < 100
14 | c1nc2c(-c3cn[nH]c3)ccc(-c3cnc(N4CCN[C@H](C5CC5)C4)nn3)c2s1 [Compound 451] | – | – | 1000 to 10000 | – | – | 1000 to 10000 | 1000 to 10000 | 1000 to 10000 | 1000 to 10000 | 1000 to 10000 | 1000 to 10000
15 | c1cnn(-c2ccc(-c3cnc(N4CCC(NC5CC5)C4)nn3)c3cn[nH]c23)c1 (stereo not shown) [Compound 484, N-cyclopropyl-1-[6-(7-pyrazol-1-yl-1H-indazol-4-yl)-1,2,4-triazin-3-yl]pyrrolidin-3-amine] | – | – | 1000 to 10000 | – | – | > 10000 | 1000 to 10000 | > 10000 | > 10000 | 1000 to 10000 | 1000 to 10000
